Reference: ChEMBL document CHEMBL1139279, “3,4-Disubstituted indole acylsulfonamides: a novel series of potent and selective human EP3 receptor antagonists” (Bioorg Med Chem Lett, 2009)
One block for each compound: values may come before it.

Key:
[1] = target: T1, Prostaglandin E2 receptor EP3 subtype (Homo sapiens, UniProt P43115); experiment: Displacement of [3H]PGE2 from human EP3 receptor
T1 sequence (P43115 whole entry): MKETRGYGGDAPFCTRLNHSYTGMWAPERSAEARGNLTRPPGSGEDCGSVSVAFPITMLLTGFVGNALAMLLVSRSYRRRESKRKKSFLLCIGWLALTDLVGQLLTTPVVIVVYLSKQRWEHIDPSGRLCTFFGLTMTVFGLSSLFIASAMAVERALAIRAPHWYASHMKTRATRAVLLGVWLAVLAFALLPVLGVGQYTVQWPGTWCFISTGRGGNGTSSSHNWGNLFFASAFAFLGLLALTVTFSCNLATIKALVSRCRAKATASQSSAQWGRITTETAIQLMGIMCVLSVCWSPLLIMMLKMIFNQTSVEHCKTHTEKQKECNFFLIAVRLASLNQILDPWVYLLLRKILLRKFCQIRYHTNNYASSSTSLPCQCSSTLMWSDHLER

[2] = target: T1, Prostaglandin E2 receptor EP3 subtype; experiment: Displacement of [3H]PGE2 from human EP3 receptor in presence of 10% human serum
[3] = Metabolic stability in human liver microsomes at 5 uM after 30 mins; format: ADME, Microsome; conditions: read-out: Activity
Liver microsomes = experiment: Metabolic stability in rat liver microsomes at 5 uM after 30 mins; format: ADME, Microsome; conditions: 0.5 h
Homo sapiens [4] = species: Homo sapiens; experiment: Selectivity ratio of IC50 for human IP receptor to IC50 for human EP3 receptor
Homo sapiens [5] = species: Homo sapiens; experiment: Selectivity ratio of IC50 for human FP receptor to IC50 for human EP3 receptor
Homo sapiens [6] = species: Homo sapiens; experiment: Selectivity ratio of IC50 for human EP4 receptor to IC50 for human EP3 receptor
Homo sapiens [7] = species: Homo sapiens; experiment: Selectivity ratio of IC50 for human EP2 receptor to IC50 for human EP3 receptor
Homo sapiens [8] = species: Homo sapiens; experiment: Selectivity ratio of IC50 for human EP1 receptor to IC50 for human EP3 receptor
[9] = target: T2, Prostaglandin E2 receptor EP3 subtype (Mus musculus, UniProt P30557); experiment: Displacement of [3H]PGE2 from mouse EP3 receptor
T2 sequence (P30557 whole entry): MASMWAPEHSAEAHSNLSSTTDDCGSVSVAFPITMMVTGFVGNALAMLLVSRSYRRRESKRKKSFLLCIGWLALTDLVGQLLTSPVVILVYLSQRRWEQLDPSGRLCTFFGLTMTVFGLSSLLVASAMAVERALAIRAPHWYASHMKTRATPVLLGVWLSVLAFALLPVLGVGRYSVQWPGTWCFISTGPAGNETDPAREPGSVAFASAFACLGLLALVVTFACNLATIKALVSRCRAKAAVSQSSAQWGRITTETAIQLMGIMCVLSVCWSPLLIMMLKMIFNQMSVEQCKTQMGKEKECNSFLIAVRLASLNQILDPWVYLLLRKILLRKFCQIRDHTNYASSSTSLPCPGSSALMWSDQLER

Rattus norvegicus = species: Rattus norvegicus; experiment: Ex vivo inhibition of platelet aggregation in rat platelet-rich plasma; format: functional, organism-based
[10] = target: T1, Prostaglandin E2 receptor EP3 subtype; experiment: Antagonist activity at human EP3 receptor assessed as cAMP production by cell-based assay; format: functional

IC50 [1]: 544 nM
Structure (SMILES): COc1ccc(S(=O)(=O)NC(=O)COc2cccc3[nH]cc(S(=O)(=O)c4ccc5ccccc5c4)c23)cc1

remaining at 0.5 h, 5 µM [3]: 52%
Activity (Liver microsomes): 14%
Structure (SMILES): O=C(COc1cccc2[nH]cc(Sc3ccc(Cl)cc3)c12)NS(=O)(=O)c1cc(Cl)c(Cl)s1

remaining at 0.5 h, 5 µM [3]: 75%
Activity (Liver microsomes): 98%
Structure (SMILES): O=C(COc1cccc2[nH]cc(S(=O)(=O)c3ccc(Cl)cc3)c12)NS(=O)(=O)c1cc(Cl)c(Cl)s1

IC50 [1]: 11.4 nM
Structure (SMILES): COc1ccc(S(=O)(=O)c2c[nH]c3cccc(OCC(=O)NS(=O)(=O)c4cc(Cl)c(Cl)s4)c23)cc1OC

IC50 [1]: 3 nM
fold shift [2]: 27.5
Structure (SMILES): O=C(COc1cccc2[nH]cc(Sc3ccc4ccccc4c3)c12)NS(=O)(=O)c1cccs1

remaining at 0.5 h, 5 µM [3]: 79%
Activity (Liver microsomes): 72%
Structure (SMILES): O=C(COc1cccc2[nH]cc(S(=O)(=O)c3ccc(Cl)cc3Cl)c12)NS(=O)(=O)c1cc(Cl)c(Cl)s1

IC50 [1]: 24 nM
fold shift [2]: 13.2
Structure (SMILES): COc1ccccc1Sc1c[nH]c2cccc(OCC(=O)NS(=O)(=O)c3cc(Cl)c(Cl)s3)c12

IC50 [1]: 5.7 nM
fold shift [2]: 33.2
Structure (SMILES): Cc1ccc(S(=O)(=O)c2c[nH]c3cccc(OCC(=O)NS(=O)(=O)c4cc(Cl)c(Cl)s4)c23)c(C)c1

IC50 [1]: 1.3 nM
fold shift [2]: 1.1
Ratio IC50 (Homo sapiens [4]): 4480
Ratio IC50 (Homo sapiens [5]): 596
Ratio IC50 (Homo sapiens [6]): 1770
Ratio IC50 (Homo sapiens [7]): 950
Ratio IC50 (Homo sapiens [8]): 10800
remaining at 0.5 h, 5 µM [3]: 46%
Activity (Liver microsomes): 74%
IC50 [9]: 15.5 nM
IC50 (Rattus norvegicus): 358 nM
IC50 [10]: 0.3 nM
Structure (SMILES): O=C(COc1cccc2[nH]cc(Sc3ccc(Cl)c(Cl)c3)c12)NS(=O)(=O)c1cc(Cl)c(Cl)s1

IC50 [1]: 8.2 nM
fold shift [2]: 58.3
Structure (SMILES): Cn1nnnc1Sc1c[nH]c2cccc(OCC(=O)NS(=O)(=O)c3cc(Cl)c(Cl)s3)c12

IC50 [1]: 13.7 nM
fold shift [2]: 5.8
Structure (SMILES): O=C(COc1cccc2[nH]cc(Sc3ccccc3Cl)c12)NS(=O)(=O)c1cc(Cl)c(Cl)s1

remaining at 0.5 h, 5 µM [3]: 23%
Activity (Liver microsomes): 35%
Structure (SMILES): O=C(COc1cccc2[nH]cc(Sc3ccc4ccccc4n3)c12)NS(=O)(=O)c1cc(Cl)c(Cl)s1

remaining at 0.5 h, 5 µM [3]: 60%
Activity (Liver microsomes): 68%
Structure (SMILES): O=C(COc1cccc2[nH]cc(S(=O)(=O)c3ccc4ccccc4n3)c12)NS(=O)(=O)c1cc(Cl)c(Cl)s1

IC50 [1]: 20.2 nM
fold shift [2]: 10.7
Structure (SMILES): O=C(COc1cccc2[nH]cc(S(=O)(=O)c3ccc(F)cc3Cl)c12)NS(=O)(=O)c1cc(Cl)c(Cl)s1

The next lines start with the compound.

Structure (SMILES): Cn1c(Sc2c[nH]c3cccc(OCC(=O)NS(=O)(=O)c4cc(Cl)c(Cl)s4)c23)nc2ccccc21
IC50 [1]: 2.5 nM
fold shift [2]: 10.5

Structure (SMILES): COc1ccc(Sc2c[nH]c3cccc(OCC(=O)NS(=O)(=O)c4cc(Cl)c(Cl)s4)c23)cc1
IC50 [1]: 0.5 nM
fold shift [2]: 22.6

Structure (SMILES): O=C(COc1cccc2[nH]cc(Sc3ccc4ccccc4c3)c12)NS(=O)(=O)c1ccccc1Cl
IC50 [1]: 1.4 nM
fold shift [2]: 48.7

Structure (SMILES): O=C(COc1cccc2[nH]cc(Sc3ccc(Cl)cc3Cl)c12)NS(=O)(=O)c1cc(Cl)c(Cl)s1
IC50 [1]: 27.6 nM
fold shift [2]: 0.2
Ratio IC50 (Homo sapiens [4]): 3350
Ratio IC50 (Homo sapiens [5]): 2030
Ratio IC50 (Homo sapiens [6]): 8880
Ratio IC50 (Homo sapiens [7]): 6230
Ratio IC50 (Homo sapiens [8]): 3520
remaining at 0.5 h, 5 µM [3]: 37%
Activity (Liver microsomes): 0%

Structure (SMILES): COc1ccc(S(=O)(=O)c2c[nH]c3cccc(OCC(=O)NS(=O)(=O)c4cc(Cl)c(Cl)s4)c23)cc1
IC50 [1]: 30 nM

Structure (SMILES): O=C(COc1cccc2[nH]cc(S(=O)(=O)c3ccc(Cl)c(Cl)c3)c12)NS(=O)(=O)c1cc(Cl)c(Cl)s1
IC50 [1]: 4.7 nM
fold shift [2]: 3.6
Ratio IC50 (Homo sapiens [4]): 2710
Ratio IC50 (Homo sapiens [5]): 384
Ratio IC50 (Homo sapiens [6]): 4220
Ratio IC50 (Homo sapiens [7]): 1450
Ratio IC50 (Homo sapiens [8]): 5190
remaining at 0.5 h, 5 µM [3]: 69.7%
Activity (Liver microsomes): 68.8%
IC50 [9]: 2 nM
IC50 (Rattus norvegicus): 136 nM
IC50 [10]: 1 nM

Structure (SMILES): O=C(COc1cccc2[nH]cc(S(=O)(=O)c3ccc4ccccc4c3)c12)NS(=O)(=O)c1cccc(Cl)c1
IC50 [1]: 5.9 nM

Structure (SMILES): O=C(COc1cccc2[nH]cc(S(=O)(=O)c3nc[nH]n3)c12)NS(=O)(=O)c1cc(Cl)c(Cl)s1
IC50 [1]: 236 nM

Structure (SMILES): O=C(COc1cccc2[nH]cc(Sc3nc4ccccc4s3)c12)NS(=O)(=O)c1cc(Cl)c(Cl)s1
IC50 [1]: 7.6 nM
fold shift [2]: 9.8
Ratio IC50 (Homo sapiens [4]): 1060
Ratio IC50 (Homo sapiens [5]): 300
Ratio IC50 (Homo sapiens [6]): 2390
Ratio IC50 (Homo sapiens [7]): 1660

Structure (SMILES): NC(=O)Cc1ccc(S(=O)(=O)c2c[nH]c3cccc(OCC(=O)NS(=O)(=O)c4cc(Cl)c(Cl)s4)c23)cc1
IC50 [1]: 27.8 nM
fold shift [2]: 5

Structure (SMILES): Cc1nnc(Sc2c[nH]c3cccc(OCC(=O)NS(=O)(=O)c4cc(Cl)c(Cl)s4)c23)s1
IC50 [1]: 36.7 nM

Structure (SMILES): O=C(COc1cccc2[nH]cc(Sc3ccc4ccccc4c3)c12)NS(=O)(=O)c1cccc(Cl)c1
IC50 [1]: 2 nM
fold shift [2]: 2.2
Ratio IC50 (Homo sapiens [4]): 1300
Ratio IC50 (Homo sapiens [5]): 1030
Ratio IC50 (Homo sapiens [6]): 1360
Ratio IC50 (Homo sapiens [7]): 1090
Ratio IC50 (Homo sapiens [8]): 12300

Structure (SMILES): Cc1ccc(Sc2c[nH]c3cccc(OCC(=O)NS(=O)(=O)c4cc(Cl)c(Cl)s4)c23)c(C)c1
IC50 [1]: 1.3 nM
fold shift [2]: 5.2
Ratio IC50 (Homo sapiens [4]): 31600
Ratio IC50 (Homo sapiens [5]): 401
Ratio IC50 (Homo sapiens [6]): 1860
Ratio IC50 (Homo sapiens [7]): 1290
Ratio IC50 (Homo sapiens [8]): 13100

Structure (SMILES): Cn1nnnc1S(=O)(=O)c1c[nH]c2cccc(OCC(=O)NS(=O)(=O)c3cc(Cl)c(Cl)s3)c12
IC50 [1]: 88.4 nM
